Laboratory results taken from ChEMBL document CHEMBL1137023, “Synthesis and antibacterial activity of arylpiperazinyl oxazolidinones with diversification of the N-substituents” (2004).
≈ marks a conversion by molar mass, not a printed value.

Assays:
[1] = Minimum inhibitory concentration against […] ATCC 13813; type: functional; settings: Streptococcus agalactiae
[2] = system: Enterococcus faecalis; assay: Minimum inhibitory concentration against Enterococcus faecalis ATCC 29212; type: functional
[3] = system: Streptococcus pyogenes; assay: Minimum inhibitory concentration against Streptococcus pyogenes ATCC 8668
[4] = system: Staphylococcus aureus; assay: Minimum inhibitory concentration against Staphylococcus aureus ATCC 25923; type: functional
[5] = system: Staphylococcus aureus; assay: Antibacterial activity against Staphylococcus aureus was evaluated in infected mice; type: functional

Compound	MIC [1]	MIC [2]	MIC [3]	MIC [4]	ED50 [5]
O=C1O[C@@H](COC2CNCCN2)CN1c1ccc(N2CCN(c3ccccc3Cl)CC2)c(F)c1 (stereo partly drawn)	> 64 µg/mL	> 64 µg/mL	> 64 µg/mL	> 64 µg/mL	–
O=C1O[C@@H](CO[n+]2ccco2)CN1c1ccc(N2CCN(c3ccccc3Cl)CC2)c(F)c1	> 64 µg/mL	> 64 µg/mL	> 64 µg/mL	> 64 µg/mL	–
COC(=S)NC[C@H]1CN(c2ccc(N3CCN(c4ccccc4)CC3)c(F)c2)C(=O)O1	0.12 µg/mL (≈ 0.27 µM)	0.25 µg/mL (≈ 0.562 µM)	–	0.25 µg/mL (≈ 0.562 µM)	–
NC(=S)NC[C@H]1CN(c2ccc(N3CCN(c4ccccc4Cl)CC3)cc2)C(=O)O1	0.06 µg/mL (≈ 0.135 µM)	0.06 µg/mL (≈ 0.135 µM)	–	0.03 µg/mL (≈ 0.0673 µM)	–
NC(=S)NC[C@H]1CN(c2ccc(N3CCN(c4ccccn4)CC3)c(F)c2)C(=O)O1	0.12 µg/mL (≈ 0.279 µM)	0.25 µg/mL (≈ 0.581 µM)	–	0.12 µg/mL (≈ 0.279 µM)	–
NC(=S)NC[C@H]1CN(c2ccc(N3CCN(c4cccc(Cl)c4)CC3)c(F)c2)C(=O)O1	0.008 µg/mL (≈ 0.0172 µM)	0.06 µg/mL (≈ 0.129 µM)	–	0.02 µg/mL (≈ 0.0431 µM)	> 16 mg/kg
NC(=S)NC[C@H]1CN(c2ccc(N3CCN(c4ccc(Cl)cc4)CC3)c(F)c2)C(=O)O1	0.12 µg/mL (≈ 0.259 µM)	0.5 µg/mL (≈ 1.08 µM)	–	0.12 µg/mL (≈ 0.259 µM)	–
CC(=O)NC[C@H]1CN(c2ccc(N3CCOCC3)c(F)c2)C(=O)O1 [LINEZOLID]	0.5 µg/mL (≈ 1.48 µM)	–	0.5 µg/mL (≈ 1.48 µM)	0.25 µg/mL (≈ 0.741 µM)	4 mg/kg
CC(=S)NC[C@H]1CN(c2ccc(N3CCN(c4cccc(F)c4)CC3)c(F)c2)C(=O)O1	0.12 µg/mL (≈ 0.269 µM)	0.03 µg/mL (≈ 0.0672 µM)	–	0.12 µg/mL (≈ 0.269 µM)	–
Cc1ccccc1N1CCN(c2ccc(N3C[C@H](CNC(N)=S)OC3=O)cc2F)CC1	0.12 µg/mL (≈ 0.271 µM)	0.25 µg/mL (≈ 0.564 µM)	–	0.12 µg/mL (≈ 0.271 µM)	–
CC(=S)NC[C@H]1CN(c2ccc(N3CCN(c4ccccc4)CC3)c(F)c2)C(=O)O1	0.12 µg/mL (≈ 0.28 µM)	0.25 µg/mL (≈ 0.583 µM)	–	0.12 µg/mL (≈ 0.28 µM)	–
COc1cccc(N2CCN(c3ccc(N4C[C@H](CNC(=S)SC)OC4=O)cc3)CC2)c1	0.25 µg/mL (≈ 0.529 µM)	0.12 µg/mL (≈ 0.254 µM)	–	0.12 µg/mL (≈ 0.254 µM)	–
NC(=S)NC[C@H]1CN(c2ccc(N3CCN(c4ccccc4)CC3)cc2)C(=O)O1	0.25 µg/mL (≈ 0.607 µM)	0.12 µg/mL (≈ 0.292 µM)	–	0.12 µg/mL (≈ 0.292 µM)	–
CC(=S)NC[C@H]1CN(c2ccc(N3CCN(c4ccc(Cl)cc4)CC3)c(F)c2)C(=O)O1	0.25 µg/mL (≈ 0.54 µM)	0.25 µg/mL (≈ 0.54 µM)	–	0.12 µg/mL (≈ 0.259 µM)	–
CC(=S)NC[C@H]1CN(c2ccc(N3CCN(c4ccccc4C)CC3)c(F)c2)C(=O)O1	0.12 µg/mL (≈ 0.271 µM)	0.05 µg/mL (≈ 0.113 µM)	–	0.12 µg/mL (≈ 0.271 µM)	–
CC(=S)NC[C@H]1CN(c2ccc(N3CCN(c4ccccc4Cl)CC3)c(F)c2)C(=O)O1	0.12 µg/mL (≈ 0.259 µM)	> 64 µg/mL	–	0.12 µg/mL (≈ 0.259 µM)	–
COC(=S)NC[C@H]1CN(c2ccc(N3CCN(c4ccccn4)CC3)c(F)c2)C(=O)O1	0.06 µg/mL (≈ 0.135 µM)	0.12 µg/mL (≈ 0.269 µM)	–	0.12 µg/mL (≈ 0.269 µM)	> 16 mg/kg
COC(=S)NC[C@H]1CN(c2ccc(N3CCN(c4cccc(OC)c4)CC3)c(F)c2)C(=O)O1	0.12 µg/mL (≈ 0.253 µM)	0.12 µg/mL (≈ 0.253 µM)	–	0.12 µg/mL (≈ 0.253 µM)	–
COc1ccccc1N1CCN(c2ccc(N3C[C@H](CNC(N)=S)OC3=O)cc2F)CC1	0.25 µg/mL (≈ 0.544 µM)	0.25 µg/mL (≈ 0.544 µM)	–	0.25 µg/mL (≈ 0.544 µM)	–
COC(=S)NC[C@H]1CN(c2ccc(N3CCN(c4cccc(Cl)c4)CC3)c(F)c2)C(=O)O1	0.12 µg/mL (≈ 0.251 µM)	0.12 µg/mL (≈ 0.251 µM)	–	0.12 µg/mL (≈ 0.251 µM)	–
CSC(=S)NC[C@H]1CN(c2ccc(N3CCN(c4cccc(Cl)c4)CC3)c(F)c2)C(=O)O1	1 µg/mL (≈ 2.02 µM)	0.5 µg/mL (≈ 1.01 µM)	–	0.12 µg/mL (≈ 0.242 µM)	–
COc1cccc(N2CCN(c3ccc(N4C[C@H](CNC(N)=S)OC4=O)cc3F)CC2)c1	0.06 µg/mL (≈ 0.131 µM)	0.06 µg/mL (≈ 0.131 µM)	–	0.03 µg/mL (≈ 0.0653 µM)	–
NC(=S)NC[C@H]1CN(c2ccc(N3CCN(c4ccccc4)CC3)c(F)c2)C(=O)O1	0.06 µg/mL (≈ 0.14 µM)	0.12 µg/mL (≈ 0.279 µM)	–	0.06 µg/mL (≈ 0.14 µM)	–
CSC(=S)NC[C@H]1CN(c2ccc(N3CCN(c4ccccn4)CC3)c(F)c2)C(=O)O1	0.25 µg/mL (≈ 0.542 µM)	0.12 µg/mL (≈ 0.26 µM)	–	0.06 µg/mL (≈ 0.13 µM)	> 16 mg/kg
O=C1O[C@@H](COc2ccccn2)CN1c1ccc(N2CCN(c3ccccc3Cl)CC2)c(F)c1	> 64 µg/mL	> 64 µg/mL	> 64 µg/mL	> 64 µg/mL	–
CC(=S)NC[C@H]1CN(c2ccc(N3CCN(c4ccccn4)CC3)c(F)c2)C(=O)O1	0.12 µg/mL (≈ 0.279 µM)	0.25 µg/mL (≈ 0.582 µM)	–	0.06 µg/mL (≈ 0.14 µM)	–
CSC(=S)NC[C@H]1CN(c2ccc(N3CCN(c4ccccc4C)CC3)c(F)c2)C(=O)O1	0.12 µg/mL (≈ 0.253 µM)	0.12 µg/mL (≈ 0.253 µM)	–	0.12 µg/mL (≈ 0.253 µM)	–
NC(=S)NC[C@H]1CN(c2ccc(N3CCN(c4cccc(C(F)(F)F)c4)CC3)c(F)c2)C(=O)O1	0.12 µg/mL (≈ 0.241 µM)	0.25 µg/mL (≈ 0.502 µM)	–	0.25 µg/mL (≈ 0.502 µM)	–
CC(=S)NC[C@H]1CN(c2ccc(N3CCN(c4cccc(Cl)c4)CC3)c(F)c2)C(=O)O1	0.03 µg/mL (≈ 0.0648 µM)	0.06 µg/mL (≈ 0.13 µM)	–	0.03 µg/mL (≈ 0.0648 µM)	> 16 mg/kg
NC(=S)NC[C@H]1CN(c2ccc(N3CCN(c4ccccc4Cl)CC3)c(F)c2)C(=O)O1	0.12 µg/mL (≈ 0.259 µM)	0.25 µg/mL (≈ 0.539 µM)	–	0.12 µg/mL (≈ 0.259 µM)	–
